Source: the NIST ThermoML archive (doi:10.1021/acs.jced.5b01044)
Numbers after ± are expanded uncertainties. Values belong to the compound of their own block, whether it stands above or below them.

Conditions: Liquid, Ebulliometric method (Recirculating still)

vapor or sublimation pressure (470.22 K): 101.3 ± 0.5 kPa
SMILES: OCCO [1,2-ethanediol]

SMILES: Cc1ccc(C)cc1 [1,4-dimethylbenzene]
vapor or sublimation pressure (411.21 K): 101.3 ± 0.5 kPa

vapor or sublimation pressure (478.95 K): 101.3 ± 0.5 kPa
SMILES: CC(C)(CO)CO [2,2-dimethyl-1,3-propanediol]
